Laboratory results taken from patent publication US11053204B2, “Pyrimidinyloxy benzene derivatives as herbicides” (FMC Corporation, priority 2015, dated 2021).

Assays:
Format in all cases: in vivo
[1] = tested on: Italian ryegrass (Lolium multiflorum); experiment: Test A preemergence, visual injury rating; settings: 0 to 100 scale (0 no effect, 100 complete control)
In short: (§1)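 Pre- and postemergence greenhouse screen. Soil: loam + sand. Spray carrier: solvent mixture, non-phytotoxic, with surfactant. Post timing at 1–2 leaves, height 2–10 cm. Readout: visual injury on a 0–100 scale roughly 10 days after application, untreated plants as reference.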

[2] = tested on: barnyardgrass (Echinochloa crus-galli); experiment: Test A preemergence, visual injury rating; settings: 0 to 100 scale (0 no effect, 100 complete control)
In short: as §1

[3] = tested on: giant foxtail (Setaria faberii); experiment: Test A preemergence, visual injury rating; settings: 0 to 100 scale (0 no effect, 100 complete control)
In short: as §1

kochia (Kochia scoparia) = experiment: Test A preemergence, visual injury rating; settings: 0 to 100 scale (0 no effect, 100 complete control)
In short: as §1

[4] = tested on: pigweed (Amaranthus retroflexus); experiment: Test A preemergence, visual injury rating; settings: 0 to 100 scale (0 no effect, 100 complete control)
In short: as §1

[5] = tested on: ragweed (common ragweed, Ambrosia elatior); experiment: Test A preemergence, visual injury rating; settings: 0 to 100 scale (0 no effect, 100 complete control)
In short: as §1

[6] = tested on: blackgrass (Alopecurus myosuroides); experiment: Test C postemergence, plant response rating; settings: for Plant response rating, Blackgrass: scale 0 to 100; for Blackgrass plant response rating: scale 0 to 100 (0 no effect, 100 complete control)
In short: (§2)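 Greenhouse plants rated visually against untreated controls 13–15 d after treatment, scale 0 = no effect to 100 = complete control. Postemergence sprays went onto potted plants 2–18 cm tall (1–4 leaves); preemergence sprays onto soil freshly sown in loam–sand or silt loam, chemicals formulated in non-phytotoxic solvent with surfactant.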

[7] = tested on: chickweed (common chickweed, Stellaria media); experiment: Test C postemergence, plant response rating; settings: for Chickweed plant response rating: scale 0 to 100 (0 no effect, 100 complete control)
In short: as §2

corn (Zea mays) = experiment: Test C postemergence, plant response rating; settings: for Corn plant response rating: scale 0 to 100 (0 no effect, 100 complete control)
In short: as §2

[8] = tested on: crabgrass, large (large crabgrass, Digitaria sanguinalis); experiment: Test C postemergence, plant response rating; settings: for Crabgrass, Large plant response rating: scale 0 to 100 (0 no effect, 100 complete control)
In short: as §2

[9] = tested on: foxtail, giant (giant foxtail, Setaria faberii); experiment: Test C postemergence, plant response rating; settings: for Foxtail, Giant plant response rating: scale 0 to 100 (0 no effect, 100 complete control)
In short: as §2

[10] = tested on: galium (catchweed bedstraw, Galium aparine); experiment: Test C postemergence, plant response rating; settings: for Galium plant response rating: scale 0 to 100 (0 no effect, 100 complete control)
In short: as §2

[11] = tested on: lambsquarters (Chenopodium album); experiment: Test C postemergence, plant response rating; settings: for Lambsquarters plant response rating: scale 0 to 100 (0 no effect, 100 complete control)
In short: as §2

[12] = tested on: nutsedge, yellow (yellow nutsedge, Cyperus esculentus); experiment: Test C postemergence, plant response rating; settings: for Nutsedge, Yellow plant response rating: scale 0 to 100 (0 no effect, 100 complete control)
In short: as §2

[13] = tested on: oat, wild (wild oat Avena fatua); experiment: Test C postemergence, plant response rating; settings: for Oat, Wild plant response rating: scale 0 to 100 (0 no effect, 100 complete control)
In short: as §2

[14] = tested on: ryegrass, Italian (Italian ryegrass, Lolium multiflorum); experiment: Test C postemergence, plant response rating; settings: for Ryegrass, Italian plant response rating: scale 0 to 100 (0 no effect, 100 complete control)
In short: as §2

soybean (Glycine max) = experiment: Test C postemergence, plant response rating; settings: for Soybean plant response rating: scale 0 to 100 (0 no effect, 100 complete control)
In short: as §2

[15] = tested on: wheat (winter wheat, Triticum aestivum); experiment: Test C postemergence, plant response rating
In short: as §2

CCCCC(=O)c1c(Br)cccc1Oc1ncc(Cl)cn1 [Compound 79]
Ryegrass, Italian plant response rating ([1]; 125 g ai/ha): 90 | Ryegrass, Italian plant response rating ([1]; 500 g ai/ha): 100 | Barnyardgrass plant response rating ([2]; 125 g ai/ha): 100 | Barnyardgrass plant response rating ([2]; 500 g ai/ha): 100 | Foxtail, Giant plant response rating ([3]; 125 g ai/ha): 100 | Foxtail, Giant plant response rating ([3]; 500 g ai/ha): 100 | Kochia plant response rating (kochia (Kochia scoparia); 125 g ai/ha): 80 | Kochia plant response rating (kochia (Kochia scoparia); 500 g ai/ha): 100 | Pigweed plant response rating ([4]; 125 g ai/ha): 100 | Pigweed plant response rating ([4]; 500 g ai/ha): 100 | Ragweed plant response rating ([5]; 125 g ai/ha): 30 | Ragweed plant response rating ([5]; 500 g ai/ha): 90 | Plant response rating, Blackgrass ([6]; 16 g ai/ha): 20 | Plant response rating, Blackgrass ([6]; 31 g ai/ha): 10 | Blackgrass plant response rating ([6]; 62 g ai/ha): 20 | Blackgrass plant response rating ([6]; 125 g ai/ha): 30 | Plant response rating, Chickweed ([7]; 16 g ai/ha, scale of 0 to 100): 95 | Plant response rating, Chickweed ([7]; 31 g ai/ha, scale 0 to 100): 90 | Chickweed plant response rating ([7]; 62 g ai/ha): 95 | Chickweed plant response rating ([7]; 125 g ai/ha): 98 | Plant response rating, Corn (corn (Zea mays); 16 g ai/ha, scale of 0 to 100): 15 | Plant response rating, Corn (corn (Zea mays); 31 g ai/ha, scale 0 to 100): 25 | Corn plant response rating (corn (Zea mays); 62 g ai/ha): 20 | Corn plant response rating (corn (Zea mays); 125 g ai/ha): 20 | Plant response rating, Crabgrass, Large ([8]; 16 g ai/ha, scale of 0 to 100): 10 | Plant response rating, Crabgrass, Large ([8]; 31 g ai/ha, scale 0 to 100): 25 | Crabgrass, Large plant response rating ([8]; 62 g ai/ha): 70 | Crabgrass, Large plant response rating ([8]; 125 g ai/ha): 65 | Plant response rating, Foxtail, Giant ([9]; 16 g ai/ha, scale of 0 to 100): 10 | Plant response rating, Foxtail, Giant ([9]; 31 g ai/ha, scale 0 to 100): 20 | Foxtail, Giant plant response rating ([9]; 62 g ai/ha): 25 | Foxtail, Giant plant response rating ([9]; 125 g ai/ha): 40 | Plant response rating, Galium ([10]; 16 g ai/ha, scale of 0 to 100): 75 | Plant response rating, Galium ([10]; 31 g ai/ha, scale 0 to 100): 80 | Galium plant response rating ([10]; 62 g ai/ha): 85 | Galium plant response rating ([10]; 125 g ai/ha): 95 | Plant response rating, Lambsquarters ([11]; 16 g ai/ha, scale of 0 to 100): 75 | Plant response rating, Lambsquarters ([11]; 31 g ai/ha, scale 0 to 100): 85 | Lambsquarters plant response rating ([11]; 62 g ai/ha): 90 | Lambsquarters plant response rating ([11]; 125 g ai/ha): 100 | Plant response rating, Nutsedge, Yellow ([12]; 16 g ai/ha, scale of 0 to 100): 0 | Plant response rating, Nutsedge, Yellow ([12]; 31 g ai/ha, scale 0 to 100): 5 | Nutsedge, Yellow plant response rating ([12]; 62 g ai/ha): 5 | Nutsedge, Yellow plant response rating ([12]; 125 g ai/ha): 5 | Plant response rating, Oat, Wild ([13]; 16 g ai/ha, scale of 0 to 100): 15 | Plant response rating, Oat, Wild ([13]; 31 g ai/ha, scale 0 to 100): 60 | Oat, Wild plant response rating ([13]; 62 g ai/ha): 45 | Oat, Wild plant response rating ([13]; 125 g ai/ha): 35 | Plant response rating, Ryegrass, Italian ([14]; 16 g ai/ha, scale of 0 to 100): 5 | Plant response rating, Ryegrass, Italian ([14]; 31 g ai/ha, scale 0 to 100): 30 | Ryegrass, Italian plant response rating ([14]; 62 g ai/ha): 25 | Ryegrass, Italian plant response rating ([14]; 125 g ai/ha): 30 | Plant response rating, Soybean (soybean (Glycine max); 16 g ai/ha, scale of 0 to 100): 60 | Plant response rating, Soybean (soybean (Glycine max); 31 g ai/ha, scale 0 to 100): 70 | Soybean plant response rating (soybean (Glycine max); 62 g ai/ha): 65 | Soybean plant response rating (soybean (Glycine max); 125 g ai/ha): 65 | Plant response rating, Wheat ([15]; 16 g ai/ha, scale of 0 to 100): 5 | Plant response rating, Wheat ([15]; 31 g ai/ha, scale 0 to 100): 5 | Wheat plant response rating ([15]; 125 g ai/ha, scale 0 to 100 (0 no effect, 100 complete control)): 15
